Reference: patent US20230295157A1, “3-(1H-IMIDAZOL-2-YL)-2,3,8,8A-TETRAHYDROINDOLIZIN-5(1H)-ONE DERIVATIVES USEFUL AS FACTOR XIA INHIBITORS” (JANSSEN PHARMACEUTICA NV, priority 2020, published 2023)
Where two headings read alike, the source gives them in different places.

What was measured:
Factor XIa = Factor XIa (Homo sapiens (Human), UniProt P03951); test: Factor XIa inhibition assay (FLINT) utilizing a fluorophore-quencher pair peptide substrate; assay type: biochemical; settings: 30 min preincubation, kinetic reads over 30 min, read-out: FXIa Kin Inh IC50
Chain of Factor XIa (P03951 388-625): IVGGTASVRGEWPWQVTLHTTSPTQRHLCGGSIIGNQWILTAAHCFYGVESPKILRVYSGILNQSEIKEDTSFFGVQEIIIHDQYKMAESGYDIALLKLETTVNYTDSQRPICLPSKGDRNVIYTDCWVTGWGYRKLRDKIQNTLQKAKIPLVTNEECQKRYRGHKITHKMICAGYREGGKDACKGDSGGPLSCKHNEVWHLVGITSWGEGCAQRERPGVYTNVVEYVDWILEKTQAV
Chain of Factor XIa (P03951 19-387 partner): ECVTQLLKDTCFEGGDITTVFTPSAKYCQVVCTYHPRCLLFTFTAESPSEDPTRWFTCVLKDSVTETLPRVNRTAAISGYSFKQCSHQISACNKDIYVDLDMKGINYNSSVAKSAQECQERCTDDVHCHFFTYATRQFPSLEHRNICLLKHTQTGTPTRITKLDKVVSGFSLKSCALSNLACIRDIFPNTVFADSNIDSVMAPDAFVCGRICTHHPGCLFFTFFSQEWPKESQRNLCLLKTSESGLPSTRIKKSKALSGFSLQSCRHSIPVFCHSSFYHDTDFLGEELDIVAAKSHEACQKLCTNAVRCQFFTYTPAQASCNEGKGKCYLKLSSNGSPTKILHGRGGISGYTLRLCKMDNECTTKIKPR
Summary of the method: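 FXIa ([…]) preincubated 30 min with compound (11-point 3-fold dilution, top 100 nM, 2% DMSO), then 15 μM quenched FXI Arg146-based peptide added; Tris pH 7.5, CaCl2, BSA, CHAPS. Fluorescence 485/520 nm read kinetically every 5 min over 30 min at RT; IC50 by 4-parameter fit.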

human plasma kallikrein = human plasma kallikrein (Homo sapiens (Human), UniProt P03952); test: Kallikrein inhibition assay (FLINT) utilizing a quenched AMC peptide substrate; assay type: biochemical; settings: 30 min preincubation, kinetic reads over 30 min, Z-Gly-Pro-Arg-AMC substrate 50 μM; read-out: Kallikrein Kin Inh IC50
Chain of human plasma kallikrein (P03952 391-638): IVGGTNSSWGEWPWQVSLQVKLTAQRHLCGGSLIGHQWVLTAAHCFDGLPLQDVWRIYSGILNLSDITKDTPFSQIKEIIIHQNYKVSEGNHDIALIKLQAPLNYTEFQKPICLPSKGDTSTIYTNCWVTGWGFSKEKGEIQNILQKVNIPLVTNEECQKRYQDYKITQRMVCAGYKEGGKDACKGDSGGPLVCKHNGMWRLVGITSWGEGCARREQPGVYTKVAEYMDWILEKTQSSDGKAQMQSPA
Chain of human plasma kallikrein (P03952 20-390 partner): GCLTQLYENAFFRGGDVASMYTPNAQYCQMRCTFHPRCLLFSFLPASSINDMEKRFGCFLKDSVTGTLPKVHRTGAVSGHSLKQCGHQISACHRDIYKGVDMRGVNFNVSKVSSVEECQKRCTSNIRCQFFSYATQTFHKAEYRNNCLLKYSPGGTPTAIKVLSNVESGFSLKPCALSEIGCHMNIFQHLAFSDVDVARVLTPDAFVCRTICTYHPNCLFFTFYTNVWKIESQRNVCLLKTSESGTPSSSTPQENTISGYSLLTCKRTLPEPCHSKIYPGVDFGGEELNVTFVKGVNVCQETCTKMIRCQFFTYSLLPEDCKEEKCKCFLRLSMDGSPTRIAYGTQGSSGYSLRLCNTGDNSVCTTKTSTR
Summary of the method: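 Enzyme (2 nM final) pre-incubated 30 min at room temperature with compound (11-point, 3-fold, top 1 μM, 2% DMSO), then 50 μM Z-Gly-Pro-Arg-AMC added in Tris pH 7.5 buffer. Kinetic fluorescence 340/440 nm every 5 min over 30 min; IC50 from 4-parameter logistic fit.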

[1] = 5Fam-KLTRAETV-K5Tamra substrate 15 μM
[2] = 5Fam-[…]-K5Tamra substrate 15 μM

Compound | IC50 (Factor XIa; [1]) [nM] | IC50 (human plasma kallikrein) [nM] | IC50 (Factor XIa; [2]) [nM]
CC1CC2CC(c3c(-n4cnnn4)ccc(Cl)c3F)=CC(=O)N2C1c1ncc(-c2ccc(N)nc2F)[nH]1 (stereo not shown) [Example 328, 3-(5-(6-Amino-2-fluoropyridin-3-yl)-1H-imidazol-2-yl)-7-(3-chloro-2-fluoro-6-(1H-tetrazol-1-yl)phenyl)-2-methyl-2,3,8,8a-tetrahydroindolizin-5(1H)-one] | 3.4 | 45.9 | 
O=C1C=C(c2c(-n3cnnn3)ccc(Cl)c2F)C[C@H]2CC[C@@H](c3ncc(-c4ccnc([C@@H](O)C(F)(F)F)c4)[nH]3)N12 (relative stereo) [Example 175, (3S*,8 aR*)-7-(3-chloro-2-fluoro-6-(1H-tetrazol-1-yl)phenyl)-3-(5-(2-((R*)-2,2,2-trifluoro-1-hydroxyethyl)pyridin-4-yl)-1H-imidazol-2-yl)-2,3,8,8a-tetrahydroindolizin-5(1H)-one] |  | 30.3 | 9.5
O=C(O)c1nccc(-c2cnc([C@@H]3CC[C@@H]4CC(c5cc(Cl)ccc5-n5cc(C(F)(F)F)nn5)=CC(=O)N43)[nH]2)c1F (single isomer, unassigned) [Example 54, 4-(2-((3S*,8aR)-7-(5-chloro-2-(4-(trifluoromethyl)-1H-1,2,3-triazol-1-yl)phenyl)-5-oxo-1,2,3,5,8,8a-hexahydroindolizin-3-yl)-1H-imidazol-5-yl)-3-fluoropicolinic acid] |  | 67.9 | 0.8
O=C1CCCN1c1nccc(-c2cnc([C@@H]3CC[C@H]4CC(c5c(-n6cnnn6)ccc(Cl)c5F)=CC(=O)N43)[nH]2)c1F [Example 105, (3S,8aS)-7-(3-chloro-2-fluoro-6-(1H-tetrazol-1-yl)phenyl)-3-(5-(3-fluoro-2-(2-oxopyrrolidin-1-yl)pyridin-4-yl)-1H-imidazol-2-yl)-2,3,8,8a-tetrahydroindolizin-5(1H)-one] | 62.9 | 125 | 
O=C1C=C(c2c(-n3cnnn3)ccc(Cl)c2F)C[C@H]2CC[C@@H](c3ncc(-c4c[nH]nc4Cl)[nH]3)N12 (single isomer, unassigned) [Example 224] | 0.5 | 8 | 
COCc1nccc(-c2c[nH]c([C@@H]3CCC4CC(c5c(-n6cnnn6)ccc(Cl)c5F)=CC(=O)N43)n2)c1F (stereo partly drawn) [Example 177, (3S)-7-(3-chloro-2-fluoro-6-(1H-tetrazol-1-yl)phenyl)-3-(4-(3-fluoro-2-(methoxymethyl)pyridin-4-yl)-1H-imidazol-2-yl)-2,3,8,8a-tetrahydroindolizin-5(1H)-one] | 3.1 | 21.6 | 
CNC(=O)c1ccccc1-c1cnc([C@@H]2CCC3CC(c4c(-n5cnnn5)ccc(Cl)c4F)=CC(=O)N32)[nH]1 (stereo partly drawn) [Example 287, 2-(2-((3S)-7-(3-chloro-2-fluoro-6-(1H-tetrazol-1-yl)phenyl)-5-oxo-1,2,3,5,8,8a-hexahydroindolizin-3-yl)-1H-imidazol-5-yl)-N-methylbenzamide] | ~30.4 | 380 | 
N#CC1CN(c2nccc(-c3cnc([C@@H]4CC[C@@H]5CC(c6c(-n7cnnn7)ccc(Cl)c6F)=CC(=O)N54)[nH]3)c2F)C1 (single isomer, unassigned) [Example 100, 1-(4-(2-((3S*,8aR)-7-(3-chloro-2-fluoro-6-(1H-tetrazol-1-yl)phenyl)-5-oxo-1,2,3,5,8,8a-hexahydroindolizin-3-yl)-1H-imidazol-5-yl)-3-fluoropyridin-2-yl)azetidine-3-carbonitrile] |  | 5.1 | 1.9
NC(=O)c1ccc(-c2cnc([C@@H]3CC[C@@H]4CC(c5c(-n6cc(C(F)(F)F)nn6)ccc(Cl)c5F)=CC(=O)N43)[nH]2)cn1 (single isomer, unassigned) [Example 212] | 20.5 | 90.9 | 
O=C1C=C(c2c(-n3cnnn3)ccc(Cl)c2F)C[C@H]2CC[C@@H](c3ncc(-c4ccc5[nH]ccc5c4)[nH]3)N12 [Example 14, (3S,8aR)-3-(5-(1H-indol-5-yl)-1H-imidazol-2-yl)-7-(3-chloro-2-fluoro-6-(1H-tetrazol-1-yl)phenyl)-2,3,8,8a-tetrahydroindolizin-5(1H)-one] | 3.8 | 6.5 | 
COC(=O)Nc1ccccc1-c1cnc([C@@H]2CC[C@H]3CC(c4c(-n5cnnn5)ccc(Cl)c4F)=CC(=O)N32)[nH]1 (relative stereo) [Example 302, Methyl 2-(24(3S,8aS*)-7-(3-chloro-2-fluoro-6-(1H-tetrazol-1-yl)phenyl)-5-oxo-1,2,3,5,8,8a-hexahydroindolizin-3-yl)-1H-imidazol-4-yl)phenylcarbamate] |  | 29.1 | 10.4

The remaining compounds from weak to strong by IC50 (human plasma kallikrein), led by results:

IC50 (Factor XIa; [1]) [nM] | IC50 (human plasma kallikrein) [nM] | IC50 (Factor XIa; [2]) [nM] | Compound
76.8 | 558 |  | CC(=O)Nc1cnc(C(F)(F)F)cc1-c1cnc([C@@H]2CC[C@@H]3CC(c4c(-n5cnnn5)ccc(Cl)c4F)=CC(=O)N32)[nH]1 [Example 245, N-[4-[2-[(3S,8aR)-7-[3-Chloro-2-fluoro-6-(tetrazol-1-yl)phenyl]-5-oxo-2,3,8,8a-tetrahydro-1H-indolizin-3-yl]-1H-imidazol-5-yl]-6-(trifluoromethyl)-3-pyridyl]acetamide]
1.8 | 141 |  | CC(F)(F)C(=O)Nc1cnccc1-c1c[nH]c([C@@H]2CCC3CC(c4c(-n5cnnn5)ccc(Cl)c4F)=CC(=O)N32)n1 (stereo partly drawn) [Example 246, N-[4-[2-[(3S)-7-[3-Chloro-2-fluoro-6-(tetrazol-1-yl)phenyl]-5-oxo-2,3,8,8a-tetrahydro-1H-indolizin-3-yl]-1H-imidazol-4-yl]-3-pyridyl]-2,2-difluoro-propanamide]
 | 16.9 | 0.7 | [2H]c1cc(Cl)cc(C2=CC(=O)N3[C@H](CC[C@@H]3c3ncc(-c4ccc(N)nc4F)[nH]3)C2)c1-n1cnnn1 (single isomer, unassigned) [Example 121]
6.2 | 10.7 |  | C[C@H](Oc1nccc(-c2cnc([C@@H]3CC[C@@H]4CC(c5c(-n6cnnn6)ccc(Cl)c5F)=CC(=O)N43)[nH]2)c1F)c1ncco1 (single isomer, unassigned) [Example 142, (3*S,8a*R)-7-(3-chloro-2-fluoro-6-(1H-tetrazol-1-yl)phenyl)-3-(5-(3-fluoro-2-((*S)-1-(oxazol-2-yl)ethoxy)pyridin-4-yl)-1H-imidazol-2-yl)-2,3,8,8a-tetrahydroindolizin-5(1H)-one]
0.5 | 9.6 |  | [2H]c1cc(-c2c[nH]c([C@@H]3CC[C@@H]4CC(c5c(F)c(Cl)cc([2H])c5-n5cnnn5)=CC(=O)N43)n2)c(F)nc1N [Example 125, (3S,8aR)-3-(4-(6-amino-2-fluoropyridin-3-yl-5-d)-1H-imidazol-2-yl)-7-(3-chloro-2-fluoro-6-(1H-tetrazol-1-yl)phenyl-5-d)-2,3,8,8a-tetrahydroindolizin-5(1H)-one]
 | 7.7 | 4.6 | O=C1C=C(c2c(-n3cnnn3)ccc(Cl)c2F)C[C@H]2CC[C@H](c3ncc(-c4c[nH]c5ccccc45)[nH]3)N12 (relative stereo) [Example 137, (3R*,8aR)-3-(5-(1H-indol-3-yl)-1H-imidazol-2-yl)-7-(3-chloro-2-fluoro-6-(1H-tetrazol-1-yl)phenyl)-2,3,8,8a-tetrahydroindolizin-5(1H)-one]
